From patent US9962369B2, “Methods and compositions for transdermal delivery” (SPRAYABLE HOLDINGS, INC., priority 2014, dated 2018)

Assay: Transdermal delivery of melatonin: plasma level of melatonin after applying composition to skin of a subject
Conditions: human, plasma, topical, 3 mg, Plasma level of melatonin; for concentration at 4 h / concentration at 4 hr: 4 hr after transdermal administration; for concentration at 8 h / concentration at 8 hr: 8 hr after transdermal administration; for concentration at 0 h / concentration at 0 hr: 0 hr after transdermal administration; for concentration at 1 h / concentration at 1 hr: 1 hr after transdermal administration; for concentration at 2 h / concentration at 2 hr: 2 hr after transdermal administration; for concentration at 0 hr / concentration at 1 hr / concentration at 2 hr / concentration at 4 hr / concentration at 8 hr: 0.30 mL applied to skin
[1] = Table 20 control, A− N/A, helper esters 0 mM, 2.0 mL applied
[2] = Tryptophan butyl ester hydrochloride 235.90 mM, 0.3 mL applied to skin
[3] = Tryptophan ethyl ester hydrochloride 260.47 mM, 0.3 mL applied to skin
[4] = Tryptophan isopropyl ester hydrochloride 247.52 mM, 0.3 mL applied to skin
[5] = Tyrosine isopropyl ester 269.50 mM
[6] = Tyrosine pentyl ester 243.25 mM
[7] = salt of tryptophan isopropyl ester, A− = AcO^−, 228.48 mM, 0.30 mL applied
[8] = salt of tryptophan isopropyl ester, A− = Benzoate ion, 189.98 mM, 0.30 mL applied
[9] = salt of tryptophan isopropyl ester, A− = Br^−, 220.92 mM, 0.30 mL applied
[10] = salt of tryptophan isopropyl ester, A− = Citrate ion, 159.67 mM, 0.30 mL applied

COc1ccc2[nH]cc(CCNC(C)=O)c2c1 [Melatonin]
1.9 ng/mL: concentration at 2 h [2] | concentration at 4 h [3] | concentration at 1 h [7]
0 ng/mL: concentration at 0 h [2] | concentration at 0 h [3] | concentration at 0 hr [5] | concentration at 0 hr [6] | concentration at 0 hr (Tyrosine propyl ester 269.5 mM) | concentration at 0 h [7] | concentration at 0 h [8] | concentration at 0 h [9] | concentration at 0 h [10] | concentration at 0 h (salt of tryptophan isopropyl ester, A− = Cl^−, 247.52 mM, 0.30 mL applied)
2.5 ng/mL: concentration at 8 h [4] | concentration at 2 hr (Tyrosine propyl ester 269.5 mM)
2 ng/mL: concentration at 1 h [3] | concentration at 1 hr (Tyrosine propyl ester 269.5 mM) | concentration at 8 h [7] | concentration at 4 h [8]
2.6 ng/mL: concentration at 4 hr (Tyrosine propyl ester 269.5 mM) | concentration at 8 hr (Tyrosine propyl ester 269.5 mM) | concentration at 4 h [9] | concentration at 8 h [9]
2.1 ng/mL: concentration at 1 hr [5] | concentration at 2 hr [6] | concentration at 8 hr [6] | concentration at 4 h [7] | concentration at 1 h [10] | concentration at 8 h [10]
0.1 ng/mL: concentration at 4 h [1] | concentration at 8 h [1]
2.3 ng/mL: concentration at 2 h [10]
2.8 ng/mL: concentration at 2 h [4] | concentration at 8 hr [5]
1.8 ng/mL: concentration at 1 h [2] | concentration at 8 h [3] | concentration at 1 hr [6] | concentration at 1 h [8] | concentration at 2 h [8]
2.7 ng/mL: concentration at 4 h [4] | concentration at 4 hr [5]
2.4 ng/mL: concentration at 1 h [9] | concentration at 4 h [10]
2.9 ng/mL: concentration at 2 hr [5] | concentration at 2 h [9]
2.2 ng/mL: concentration at 2 h [3] | concentration at 4 hr [6] | concentration at 2 h [7]
1.7 ng/mL: concentration at 4 h [2] | concentration at 8 h [2] | concentration at 8 h [8]
